Holding throughout (format): cell-based
For test [1], the system named is HEK293 cells (ATCC CRL-1573). As to the kind of experiment: Cellular growth inhibition assay, HEK293 cells (Example 16). Particulars: Homo sapiens, 72 hours, CellTiter-Glo 2.0. For orientation: Cellular ATP, detected with luciferase, serves as a proxy for viable cell number.
A further test has as its system HeLa cells (ATCC CCL-2). The test can be described thus: Cellular growth inhibition assay, HeLa cells (Example 16). Particulars: Homo sapiens, 72 hours, CellTiter-Glo 2.0.
The target of test [2] is T1, GSPT1 (Homo sapiens, UniProt P15170+Q96SW2).
T1 construct: host or cells: HEK293 LgBiT / GSPT1 HiBiT CRISPR knock-in
T1 sequence (P15170 whole entry): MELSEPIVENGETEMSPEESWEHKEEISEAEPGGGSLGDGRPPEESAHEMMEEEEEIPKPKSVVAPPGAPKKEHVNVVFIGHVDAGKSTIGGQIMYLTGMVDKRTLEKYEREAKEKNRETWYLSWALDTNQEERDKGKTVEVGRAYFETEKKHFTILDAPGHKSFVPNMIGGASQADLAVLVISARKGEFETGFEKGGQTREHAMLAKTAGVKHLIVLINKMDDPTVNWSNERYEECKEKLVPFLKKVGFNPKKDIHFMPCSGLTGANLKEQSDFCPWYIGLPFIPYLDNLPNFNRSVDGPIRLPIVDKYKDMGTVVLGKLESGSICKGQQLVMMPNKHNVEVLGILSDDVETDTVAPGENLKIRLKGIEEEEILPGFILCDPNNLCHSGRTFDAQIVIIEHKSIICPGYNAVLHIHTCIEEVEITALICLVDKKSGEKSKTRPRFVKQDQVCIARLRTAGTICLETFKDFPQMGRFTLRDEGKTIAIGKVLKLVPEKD
T1 sequence (Q96SW2 whole entry): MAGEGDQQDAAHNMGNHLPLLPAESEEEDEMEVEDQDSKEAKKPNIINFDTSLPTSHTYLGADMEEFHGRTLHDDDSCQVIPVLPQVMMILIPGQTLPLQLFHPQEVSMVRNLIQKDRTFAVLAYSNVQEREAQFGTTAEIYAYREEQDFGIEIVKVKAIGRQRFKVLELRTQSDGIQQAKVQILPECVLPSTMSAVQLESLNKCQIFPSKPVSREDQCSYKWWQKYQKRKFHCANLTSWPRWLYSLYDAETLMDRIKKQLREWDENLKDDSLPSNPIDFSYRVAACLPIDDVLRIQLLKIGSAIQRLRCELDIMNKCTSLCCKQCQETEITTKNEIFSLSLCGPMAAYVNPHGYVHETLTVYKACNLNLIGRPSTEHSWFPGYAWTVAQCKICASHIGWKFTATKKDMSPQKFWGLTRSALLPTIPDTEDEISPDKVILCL
T1 sequence (Q16531 whole entry partner): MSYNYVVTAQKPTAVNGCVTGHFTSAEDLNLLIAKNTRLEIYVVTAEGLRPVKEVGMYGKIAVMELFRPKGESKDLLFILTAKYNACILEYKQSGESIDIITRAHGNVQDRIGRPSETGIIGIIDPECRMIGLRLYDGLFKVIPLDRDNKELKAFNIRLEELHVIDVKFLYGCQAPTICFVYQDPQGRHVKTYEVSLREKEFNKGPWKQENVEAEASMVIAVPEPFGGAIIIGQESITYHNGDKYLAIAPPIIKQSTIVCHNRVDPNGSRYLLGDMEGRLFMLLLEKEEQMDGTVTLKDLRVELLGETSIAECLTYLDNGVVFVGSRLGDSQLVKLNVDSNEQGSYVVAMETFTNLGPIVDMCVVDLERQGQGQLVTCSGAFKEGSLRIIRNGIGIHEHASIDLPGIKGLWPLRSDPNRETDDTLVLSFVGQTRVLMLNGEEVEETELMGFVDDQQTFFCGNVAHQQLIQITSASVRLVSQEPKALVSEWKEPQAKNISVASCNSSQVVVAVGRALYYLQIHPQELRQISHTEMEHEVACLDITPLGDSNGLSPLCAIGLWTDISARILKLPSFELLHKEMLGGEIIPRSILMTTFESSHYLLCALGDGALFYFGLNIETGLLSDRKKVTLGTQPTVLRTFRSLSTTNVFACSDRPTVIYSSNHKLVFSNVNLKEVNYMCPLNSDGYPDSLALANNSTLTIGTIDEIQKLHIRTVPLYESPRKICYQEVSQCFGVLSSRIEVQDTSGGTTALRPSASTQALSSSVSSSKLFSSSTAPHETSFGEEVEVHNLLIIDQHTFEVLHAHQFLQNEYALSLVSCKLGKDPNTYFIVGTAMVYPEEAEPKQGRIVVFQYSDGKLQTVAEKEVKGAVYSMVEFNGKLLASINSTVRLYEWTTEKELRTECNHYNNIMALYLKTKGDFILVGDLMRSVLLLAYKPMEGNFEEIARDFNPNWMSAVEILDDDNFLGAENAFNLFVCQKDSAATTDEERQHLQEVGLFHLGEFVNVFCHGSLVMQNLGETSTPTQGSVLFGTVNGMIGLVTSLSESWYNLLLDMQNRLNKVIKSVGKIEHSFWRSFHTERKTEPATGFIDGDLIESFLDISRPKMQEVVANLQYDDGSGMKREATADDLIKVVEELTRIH
As to the kind of experiment: GSPT1 HiBiT degradation assay. Particulars: HEK293 LgBiT GSPT1 HiBiT cells, 6 hours. Put shortly: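 HEK293 CRISPR knock-in cells expressing LgBiT and GSPT1-HiBiT were seeded at 1000 cells/well and, after 18-24 h, treated with titrated compound plus endurazine (0.5× final) at 37 °C. Luminescence read after 6 h; loss of signal reflects GSPT1 degradation, giving DC50.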
On the technique in general: With HiBiT, luminescence reflects the tagged protein that the partner subunit can reach.

Test [3] deals with GSPT1. As to the kind of experiment: Payload release assay (DC50 readout), GSPT1 degradation in the presence of recombinant target protein. Particulars: I-series compounds (GSPT1 readout inferred).
Setting [4] is: 0 μM recombinant EGFR T790M L858R, read-out: DC50 at 0 μM EGFR T790M L858R.
Where [5] appears, read: 0 μM recombinant EGFR WT, read-out: DC50 at 0 μM EGFR WT.
Where [6] appears, read: 0 μM recombinant KRAS G12C, read-out: DC50 at 0 μM KRAS G12C.
The mark [7] stands for this setting: 5 μM recombinant KRAS G12C, read-out: DC50 at 5 μM KRAS G12C.

We go through 15 compounds from US20240408093A1, “HETEROBIFUNCTIONAL COMPOUNDS AND THEIR USE IN TREATING DISEASE” (HALDA THERAPEUTICS OPCO, INC., priority 2022, published 2024).

As usually defined, the GI50 is the concentration at which growth is held to half of that of the control. The low end stands for greater sensitivity of the cells, the high end for lower sensitivity of the cells. The DC50 is the midpoint of the concentration-degradation curve.

Where two headings read alike, the source gives them in different places. Where only a bound is given, the exact number is not on record here.

On to `C=C(CN(C(=O)NCc1ccc2c(c1)CN(C1CCC(=O)NC1=O)C2=O)c1ccc(C)c(Cl)c1)C(=O)N1C[C@@H](COc2nc(Nc3cnn(C)c3)nc3[nH]cc(Cl)c23)[C@H](OC)C1` (some centres unmarked) [Compound I-71], for which the GI50 in test [1] was 500 to 1500 nM; in the test with HeLa cells (ATCC CCL-2) it was > 10000 nM. Besides, the DC50 was in the range of 500 to 2500 nM on GSPT1 [2]; 250 to 5000 nM in the test with GSPT1 [3] (setting [4]); 250 to 5000 nM in the test on GSPT1 [3] (setting [5]); 250 to 5000 nM with GSPT1 [3] (3 μM recombinant EGFR T790M L858R, read-out: DC50 at 3 μM EGFR T790M L858R); 250 to 5000 nM in the test with GSPT1 [3] (3 μM recombinant EGFR WT, read-out: DC50 at 3 μM EGFR WT).

In the case of `C=C(COC(=O)c1c(C)csc1NC(=O)NCc1ccc2c(c1)CN(C1CCC(=O)NC1=O)C2=O)C(=O)N1CCN(c2nc(OC[C@@H]3CCCN3C)nc3c2CCN(c2cccc4cccc(Cl)c24)C3)C[C@@H]1CC#N` (stereo partly drawn) [Compound I-72, 2-[(2S)-4-[7-(8-chloro-1-naphthyl)-2-[[(2S)-1-methylpyrrolidin-2-yl]methoxy]-6,8-dihydro-5H-pyrido[3,4-d]pyrimidin-4-yl]-2-(cyanomethyl)piperazine-1-carbonyl]allyl 2-[[2-(2,6-dioxo-3-piperidyl)-1-oxo-isoindolin-5-yl]methylcarbamoylamino]-4-methyl-thiophene-3-carboxylate], the GI50 (in test [1]; in the test on HeLa cells (ATCC CCL-2)) was 1500 to 10000 nM in each case. In addition, the DC50 at GSPT1 [2] was > 2500 nM; in the test on GSPT1 [3] (setting [6]), > 10000 nM; with GSPT1 [3] (setting [7]), 250 to 5000 nM.

For the compound `C=C(COC(=O)NCc1cc(Cl)cc(NC(=O)NCc2ccc3c(c2)CN(C2CCC(=O)NC2=O)C3=O)c1)C(=O)N1CCN(c2nc(OC[C@@H]3CCCN3C)nc3c2CCN(c2cccc4cccc(Cl)c24)C3)C[C@@H]1CC#N` (some centres unmarked) [Compound I-73], the GI50 in test [1] was < 500 nM; in the test with HeLa cells (ATCC CCL-2), 1500 to 10000 nM. For the same compound, the half-maximal degradation concentration (DC50) on GSPT1 [2] was 50 to 500 nM; in the test with GSPT1 [3] (setting [6]), < 250 nM; in the test with GSPT1 [3] (setting [7]) it was < 250 nM.

As to `C=C(COC(=O)NCCCc1cc(Cl)cc(NC(=O)NCc2ccc3c(c2)CN(C2CCC(=O)NC2=O)C3=O)c1)C(=O)N1CCN(c2nc(OC[C@@H]3CCCN3C)nc3c2CCN(c2cccc4cccc(Cl)c24)C3)C[C@@H]1CC#N` (some centres unmarked) [Compound I-74], the GI50 in test [1] was in the range of 500 to 1500 nM; in the test on HeLa cells (ATCC CCL-2) it was 1500 to 10000 nM. Besides, the results for the DC50 on GSPT1 [2], with GSPT1 [3] (setting [6]) and with GSPT1 [3] (setting [7]) were 500 to 2500 nM, 250 to 5000 nM and < 250 nM, respectively.

Regarding `C=C(COc1cc(NC(=O)NCc2ccc3c(c2)CN(C2CCC(=O)NC2=O)C3=O)cc(F)c1F)C(=O)N1CCN(c2nc(OC[C@@H]3CCCN3C)nc3c2CCN(c2cccc4cccc(Cl)c24)C3)C[C@@H]1CC#N` (some centres unmarked) [Compound I-75], the GI50 (in test [1]; in the test on HeLa cells (ATCC CCL-2)) was > 10000 nM throughout. Besides, the DC50 was > 2500 nM at GSPT1 [2], > 10000 nM in the test on GSPT1 [3] (setting [6]) and > 10000 nM with GSPT1 [3] (setting [7]).

With `C=C(COc1ccc(Cl)cc1NC(=O)NCc1ccc2c(c1)CN(C1CCC(=O)NC1=O)C2=O)C(=O)N1CC2(CC(n3nc(-c4ccc5c(cnn5C)c4)c(-c4c(Cl)c(C)cc5[nH]ncc45)c3C)C2)C1` (centres unmarked) [Compound I-76], the GI50 in test [1] was < 500 nM; in the test on HeLa cells (ATCC CCL-2) it was 500 to 1500 nM. Besides, the half-maximal degradation concentration (DC50) was 50 to 500 nM at GSPT1 [2], < 250 nM in the test on GSPT1 [3] (setting [6]) and < 250 nM in the test on GSPT1 [3] (setting [7]).

`C=C(COc1cc(NC(=O)NCc2ccc3c(c2)CN(C2CCC(=O)NC2=O)C3=O)cc(C(F)(F)F)c1)C(=O)N1CC2(CC(n3nc(-c4ccc5c(cnn5C)c4)c(-c4c(Cl)c(C)cc5[nH]ncc45)c3C)C2)C1` (centres unmarked) [Compound I-77]: the 50% growth inhibitory concentration (GI50) was 500 to 1500 nM in test [1] and > 10000 nM in the test with HeLa cells (ATCC CCL-2). For the same compound, the DC50 at GSPT1 [2] was 50 to 500 nM; with GSPT1 [3] (setting [6]) it was < 250 nM; in the test on GSPT1 [3] (setting [7]) it was < 250 nM.

`C=C(COc1cc(Cl)cc(NC(=O)NCc2ccc3c(c2)CN(C2CCC(=O)NC2=O)C3=O)c1F)C(=O)N1CCN(c2nc(OC[C@@H]3CCCN3C)nc3c2CCN(c2cccc4cccc(Cl)c24)C3)C[C@@H]1CC#N` (some centres unmarked) [Compound I-84]: the GI50 in test [1] was < 500 nM; with HeLa cells (ATCC CCL-2), 1500 to 10000 nM. In addition, the DC50 was 50 to 500 nM at GSPT1 [2], < 250 nM in the test with GSPT1 [3] (setting [6]) and < 250 nM in the test on GSPT1 [3] (setting [7]).

Turning to `C=C(COc1cc(NC(=O)NCc2ccc3c(c2F)CN(C2CCC(=O)NC2=O)C3=O)cc(C(F)(F)F)c1)C(=O)N1CCN(c2nc(OC[C@@H]3CCCN3C)nc3c2CCN(c2cccc4cccc(Cl)c24)C3)C[C@@H]1CC#N` (some centres unmarked) [Compound I-85], the GI50 in test [1] is 1500 to 10000 nM; in the test on HeLa cells (ATCC CCL-2), > 10000 nM. Besides, the DC50 on GSPT1 [2] is 50 to 500 nM; in the test on GSPT1 [3] (setting [6]), 250 to 5000 nM; in the test with GSPT1 [3] (setting [7]), < 250 nM.

For `C=C(COc1c(Cl)cccc1NC(=O)NCc1ccc2c(c1)CN(C1CCC(=O)NC1=O)C2=O)C(=O)N1CCN(c2nc(OC[C@@H]3CCCN3C)nc3c2CCN(c2cccc4cccc(Cl)c24)C3)C[C@@H]1CC#N` (some centres unmarked) [Compound I-86], the values for the concentration for 50% growth inhibition (GI50) (in test [1]; in the test on HeLa cells (ATCC CCL-2)) were < 500 nM and 500 to 1500 nM, respectively. Besides, the DC50 was < 50 nM on GSPT1 [2], < 250 nM in the test with GSPT1 [3] (setting [6]) and < 250 nM in the test with GSPT1 [3] (setting [7]).

Take `C=C(CN1C(=O)CCC(N2Cc3cc(CNC(=O)Nc4ccc(C)c(Cl)c4)ccc3C2=O)C1=O)C(=O)Nc1cc(Nc2ncc(-c3cn(C)c4ccccc34)cn2)c(OC)cc1N(C)CCN(C)C` (centres unmarked) [Compound I-87]: the GI50 (in test [1]; in the test with HeLa cells (ATCC CCL-2)) was < 500 nM each time. In addition, the DC50 was 50 to 500 nM at GSPT1 [2], < 250 nM with GSPT1 [3] (setting [4]) and < 250 nM with GSPT1 [3] (setting [5]).

Take `C=C(COc1cc(C(F)(F)F)c(Cl)cc1NC(=O)NCc1ccc2c(c1)CN(C1CCC(=O)NC1=O)C2=O)C(=O)N1CCN(c2nc(OC[C@@H]3CCCN3C)nc3c2CCN(c2cccc4cccc(Cl)c24)C3)C[C@@H]1CC#N` (some centres unmarked) [Compound I-88]: the GI50 in test [1] was < 500 nM; in the test on HeLa cells (ATCC CCL-2) it was 500 to 1500 nM. For the same compound, the DC50 was < 50 nM at GSPT1 [2], < 250 nM in the test with GSPT1 [3] (setting [6]) and < 250 nM with GSPT1 [3] (setting [7]).

For `C=C(COc1cc(NC(=O)NCc2ccc3c(c2)CN(C2CCC(=O)NC2=O)C3=O)ccc1OC)C(=O)N1CCN(c2nc(OC[C@@H]3CCCN3C)nc3c2CCN(c2cccc4cccc(Cl)c24)C3)C[C@@H]1CC#N` (some centres unmarked) [Compound I-89], the GI50 (in test [1]; in the test with HeLa cells (ATCC CCL-2)) was > 10000 nM in each case. For the same compound, the DC50 on GSPT1 [2] was 500 to 2500 nM; in the test on GSPT1 [3] (setting [6]), 250 to 5000 nM; in the test with GSPT1 [3] (setting [7]), > 10000 nM.

`C=C(COc1c(CNC(=O)Nc2ccc(C)c(Cl)c2)ccc2c1CN(C1CCC(=O)NC1=O)C2=O)C(=O)N1CCN(c2nc(OC[C@@H]3CCCN3C)nc3c2CCN(c2cccc4cccc(Cl)c24)C3)C[C@@H]1CC#N` (some centres unmarked) [Compound I-90]: the GI50 is < 500 nM in test [1] and > 10000 nM in the test on HeLa cells (ATCC CCL-2). In addition, the results for the DC50 on GSPT1 [2], with GSPT1 [3] (setting [6]) and in the test on GSPT1 [3] (setting [7]) were 50 to 500 nM, < 250 nM and < 250 nM, respectively.

As for `C=C(COc1cc(Cl)cc(NC(=O)NCc2ccc3c(c2F)CN(C2CCC(=O)NC2=O)C3=O)c1)C(=O)N1CCN(c2nc(OC[C@@H]3CCCN3C)nc3c2CCN(c2cccc4cccc(Cl)c24)C3)C[C@@H]1CC#N` (some centres unmarked) [Compound I-116], the GI50 in test [1] is 1500 to 10000 nM; in the test with HeLa cells (ATCC CCL-2), > 10000 nM. The DC50 on GSPT1 [2] is 500 to 2500 nM; with GSPT1 [3] (setting [6]) it was 250 to 5000 nM; with GSPT1 [3] (setting [7]) it was < 250 nM.
